Experimental data taken from patent US9580416B2, “Inhibitors of Bruton's tyrosine kinase” (PHARMACYCLICS LLC, priority 2014, dated 2017).

Columns and labels:
Type in all cases: biochemical
EGFR = EGFR (Homo sapiens, UniProt P00533); experiment: Inhibition of a panel of kinases, in vitro HotSpot kinase assay: EGFR
Procedure: (§1) The degree of inhibition of a panel of kinases is determined using the in vitro HotSpot kinase assay (purified enzymes, ^33P-ATP, an appropriate substrate and 1 uM ATP).

Lck = Lck (Homo sapiens, UniProt P06239); experiment: Lck kinase activity, TR-FRET assay; conditions: read-out: LCK (IC50)
How it was run: (§2)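 Enzyme (Btk 0.5 nM; Lck 6 nM) reacted 1 h with inhibitor, ATP at Km and biotin-peptide substrate in pH 7.4 buffer, 10% DMSO. Phosphopeptide detected by Eu-p-Tyr100 antibody plus streptavidin-APC (665/615 nm). IC50 calculated from fitted Ki(app) via ATP/Km correction plus half total enzyme.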

Btk = Btk (Homo sapiens, UniProt Q06187); experiment: Btk kinase activity, TR-FRET assay; conditions: read-out: Btk (IC50)
How it was run: as §2

JAK3 = target: T1, JAK3 (Homo sapiens, UniProt P52333); experiment: Inhibition of a panel of kinases, in vitro HotSpot kinase assay: JAK3
T1 sequence (P52333 1-1124): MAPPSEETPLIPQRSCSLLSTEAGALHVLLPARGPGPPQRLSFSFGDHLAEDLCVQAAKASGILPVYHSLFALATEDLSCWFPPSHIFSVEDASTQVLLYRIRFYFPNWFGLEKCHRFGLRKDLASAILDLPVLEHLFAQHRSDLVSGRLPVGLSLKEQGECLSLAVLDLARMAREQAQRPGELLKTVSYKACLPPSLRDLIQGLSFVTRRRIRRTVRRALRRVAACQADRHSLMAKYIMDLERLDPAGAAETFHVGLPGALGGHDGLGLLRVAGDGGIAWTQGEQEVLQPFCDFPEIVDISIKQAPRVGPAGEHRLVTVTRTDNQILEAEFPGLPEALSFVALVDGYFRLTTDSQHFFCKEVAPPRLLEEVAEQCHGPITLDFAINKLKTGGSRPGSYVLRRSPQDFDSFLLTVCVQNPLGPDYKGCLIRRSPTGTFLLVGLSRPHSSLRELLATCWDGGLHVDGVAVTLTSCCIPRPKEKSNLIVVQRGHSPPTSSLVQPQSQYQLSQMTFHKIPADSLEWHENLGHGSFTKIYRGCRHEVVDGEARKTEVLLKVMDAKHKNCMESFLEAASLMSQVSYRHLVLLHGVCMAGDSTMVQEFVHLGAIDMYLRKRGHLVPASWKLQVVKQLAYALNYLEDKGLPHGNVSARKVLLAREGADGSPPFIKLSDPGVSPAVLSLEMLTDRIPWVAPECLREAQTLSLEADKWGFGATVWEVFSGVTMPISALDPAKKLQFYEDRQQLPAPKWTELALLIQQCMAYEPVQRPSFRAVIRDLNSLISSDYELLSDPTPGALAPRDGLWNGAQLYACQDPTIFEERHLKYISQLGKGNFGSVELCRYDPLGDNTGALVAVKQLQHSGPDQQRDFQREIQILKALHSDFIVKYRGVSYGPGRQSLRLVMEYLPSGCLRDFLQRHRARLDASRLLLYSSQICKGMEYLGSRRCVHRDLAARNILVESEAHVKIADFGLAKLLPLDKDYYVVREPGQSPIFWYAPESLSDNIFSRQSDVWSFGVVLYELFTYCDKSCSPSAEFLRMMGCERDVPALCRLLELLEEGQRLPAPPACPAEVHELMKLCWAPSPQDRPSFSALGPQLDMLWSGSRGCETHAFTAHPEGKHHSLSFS
Procedure: as §1

Chain of Btk (Q06187 whole entry): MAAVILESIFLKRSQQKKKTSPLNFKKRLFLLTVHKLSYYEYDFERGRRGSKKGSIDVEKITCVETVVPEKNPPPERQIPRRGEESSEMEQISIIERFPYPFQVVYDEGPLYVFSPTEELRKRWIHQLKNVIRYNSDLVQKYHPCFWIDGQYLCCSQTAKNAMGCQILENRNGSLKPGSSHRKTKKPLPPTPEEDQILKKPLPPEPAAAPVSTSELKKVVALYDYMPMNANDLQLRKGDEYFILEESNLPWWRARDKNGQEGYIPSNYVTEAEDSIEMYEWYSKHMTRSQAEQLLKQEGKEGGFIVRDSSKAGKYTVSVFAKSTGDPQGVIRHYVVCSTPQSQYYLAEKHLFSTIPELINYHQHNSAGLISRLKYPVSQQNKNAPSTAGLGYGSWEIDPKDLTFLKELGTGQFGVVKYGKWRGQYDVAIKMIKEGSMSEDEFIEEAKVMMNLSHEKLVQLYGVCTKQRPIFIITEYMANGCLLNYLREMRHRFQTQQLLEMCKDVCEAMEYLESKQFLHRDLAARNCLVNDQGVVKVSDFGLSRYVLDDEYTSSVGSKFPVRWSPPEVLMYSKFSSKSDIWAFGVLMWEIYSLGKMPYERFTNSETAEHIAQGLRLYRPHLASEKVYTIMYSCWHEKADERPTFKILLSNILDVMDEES
Chain of Lck (P06239 whole entry, species assumed): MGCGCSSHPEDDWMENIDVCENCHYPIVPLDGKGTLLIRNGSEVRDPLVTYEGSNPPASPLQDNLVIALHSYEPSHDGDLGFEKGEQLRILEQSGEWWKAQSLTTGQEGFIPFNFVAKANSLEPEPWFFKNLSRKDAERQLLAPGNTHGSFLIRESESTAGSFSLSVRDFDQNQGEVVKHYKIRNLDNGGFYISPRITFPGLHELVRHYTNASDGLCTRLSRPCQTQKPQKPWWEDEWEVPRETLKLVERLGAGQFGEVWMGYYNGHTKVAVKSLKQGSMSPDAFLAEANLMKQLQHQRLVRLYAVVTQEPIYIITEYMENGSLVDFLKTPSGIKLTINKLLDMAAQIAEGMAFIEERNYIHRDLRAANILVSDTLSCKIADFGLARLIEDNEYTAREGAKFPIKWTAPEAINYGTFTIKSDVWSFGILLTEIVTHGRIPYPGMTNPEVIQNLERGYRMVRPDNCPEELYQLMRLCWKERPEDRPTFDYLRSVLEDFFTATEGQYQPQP
Chain of EGFR (P00533 25-1210): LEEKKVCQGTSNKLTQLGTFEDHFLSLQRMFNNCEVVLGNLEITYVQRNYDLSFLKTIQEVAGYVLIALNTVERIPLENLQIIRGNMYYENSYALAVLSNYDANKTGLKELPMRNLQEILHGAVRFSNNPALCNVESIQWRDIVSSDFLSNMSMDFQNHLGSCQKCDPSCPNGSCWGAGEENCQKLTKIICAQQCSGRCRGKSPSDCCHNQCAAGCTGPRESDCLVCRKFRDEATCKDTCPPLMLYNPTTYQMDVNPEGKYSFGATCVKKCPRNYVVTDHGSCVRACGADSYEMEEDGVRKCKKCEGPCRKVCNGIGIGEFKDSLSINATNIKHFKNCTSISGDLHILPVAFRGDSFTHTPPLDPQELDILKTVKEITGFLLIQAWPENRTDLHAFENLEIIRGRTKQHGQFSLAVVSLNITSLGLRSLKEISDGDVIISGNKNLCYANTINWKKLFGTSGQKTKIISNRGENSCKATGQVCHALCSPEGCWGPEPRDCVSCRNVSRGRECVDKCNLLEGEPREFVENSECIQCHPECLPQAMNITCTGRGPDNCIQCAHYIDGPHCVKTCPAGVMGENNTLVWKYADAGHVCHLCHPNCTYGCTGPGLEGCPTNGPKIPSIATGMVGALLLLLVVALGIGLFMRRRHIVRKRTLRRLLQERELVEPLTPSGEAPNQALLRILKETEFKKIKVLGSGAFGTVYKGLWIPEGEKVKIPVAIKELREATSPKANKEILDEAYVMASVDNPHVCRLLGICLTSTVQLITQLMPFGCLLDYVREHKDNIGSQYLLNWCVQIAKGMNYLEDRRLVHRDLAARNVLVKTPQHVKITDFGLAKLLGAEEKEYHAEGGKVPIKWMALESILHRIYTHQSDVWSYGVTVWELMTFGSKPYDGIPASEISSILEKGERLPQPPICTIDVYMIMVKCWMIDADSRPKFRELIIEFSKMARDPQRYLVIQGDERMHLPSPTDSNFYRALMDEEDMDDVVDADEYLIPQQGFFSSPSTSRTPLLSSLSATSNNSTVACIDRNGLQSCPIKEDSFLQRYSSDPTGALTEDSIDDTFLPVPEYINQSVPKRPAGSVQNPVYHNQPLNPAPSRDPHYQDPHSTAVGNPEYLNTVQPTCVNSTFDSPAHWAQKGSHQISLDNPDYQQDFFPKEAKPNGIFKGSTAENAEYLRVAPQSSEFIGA

Compound | IC50 (EGFR) [nM] | IC50 (Lck) [nM] | IC50 (Btk) [nM] | IC50 (JAK3) [nM]
C=CC(=O)N1CCC[C@@H](Nc2n[nH]c3nccc(Oc4ccc(-c5nc(C(F)(F)F)c[nH]5)cc4)c23)C1 [compound 154] | 1000 to 10000 | > 10000 | < 100 | 1000 to 10000
Cc1ccnc(NC(=O)c2ccc(Oc3ccnc4[nH]nc(N[C@@H]5CCCN(C(=O)C(C)(C)C#N)C5)c34)cc2)c1 [compound 102, 4-[(3-{[(3R)-1-(2-cyano-2,2-dimethylacetyl)piperidin-3-yl]amino}-1H-pyrazolo[3,4-b]pyridin-4-yl)oxy]-N-(4-methylpyridin-2-yl)benzamide] | > 10000 | 100 to 1000 | < 100 | > 10000
Cc1ccnc(NC(=O)c2ccc(Oc3ccnc4[nH]nc(N[C@@H]5CCCN(C(=O)C(=O)N(C)C)C5)c34)cc2)c1 [compound 98, 4-[(3-{[(3R)-1-[(dimethylcarbamoyl)carbonyl]piperidin-3-yl]amino}-1H-pyrazolo[3,4-b]pyridin-4-yl)oxy]-N-(4-methylpyridin-2-yl)benzamide] | > 10000 | 100 to 1000 | < 100 | > 10000
CC#CC(=O)N1CCC[C@@H](Nc2n[nH]c3nccc(Oc4ccc(C(=O)Nc5ncc(CC)s5)cc4)c23)C1 [compound 177] | 1000 to 10000 | 100 to 1000 | < 100 | 1000 to 10000
Cc1ccnc(NC(=O)c2ccc(Oc3ccnc4[nH]nc(N[C@@H]5CCCN(C(=O)[C@@H]6CCCO6)C5)c34)cc2)c1 [compound 117, N-(4-methylpyridin-2-yl)-4-[(3-{[(3R)-1-[(2S)-oxolane-2-carbonyl]piperidin-3-yl]amino}-1H-pyrazolo[3,4-b]pyridin-4-yl)oxy]benzamide] | > 10000 | > 10000 | < 100 | 1000 to 10000
C=CC(=O)N1CCC[C@@H](Nc2n[nH]c3nccc(Oc4ccc(-c5ncc(C)s5)cc4)c23)C1 [compound 158] | 100 to 1000 | 1000 to 10000 | < 100 | 1000 to 10000
O=C(Nc1cc(C(F)(F)F)ccn1)c1ccc(Oc2ccnc3[nH]nc(C4CCCN(C(=O)C5CC5)C4)c23)cc1 (stereo not drawn) [compound 218, 4-{[3-(1-cyclopropanecarbonylpiperidin-3-yl)-1H-pyrazolo[3,4-b]pyridin-4-yl]oxy}-N-[4-(trifluoromethyl)pyridin-2-yl]benzamide] | 1000 to 10000 | 1000 to 10000 | 100 to 1000 | > 10000
Cc1cc(NC(=O)c2cccc(Nc3ccnc4[nH]nc(N[C@@H]5CCCN(C(=O)N6CCOCC6)C5)c34)c2)ccc1C(C)C [compound 133, N-[3-methyl-4-(propan-2-yl)phenyl]-3-[(3-{[(3R)-1-(morpholine-4-carbonyl)piperidin-3-yl]amino}-1H-pyrazolo[3,4-b]pyridin-4-yl)amino]benzamide] | > 10000 | 1000 to 10000 | 100 to 1000 | > 10000
COCC1(C(=O)N2CCC[C@@H](Nc3n[nH]c4nccc(Oc5ccc(C(=O)Nc6cc(C)ccn6)cc5)c34)C2)CCC1 [compound 99, 4-[(3-{[(3R)-1-[1-(methoxymethyl)cyclobutanecarbonyl]piperidin-3-yl]amino}-1H-pyrazolo[3,4-b]pyridin-4-yl)oxy]-N-(4-methylpyridin-2-yl)benzamide] | > 10000 | 100 to 1000 | < 100 | > 10000
CCNC(=O)N1CCC[C@@H](Nc2n[nH]c3nccc(Oc4ccc(C(=O)Nc5cc(C(F)(F)F)ccn5)cc4)c23)C1 [compound 207, (3R)-N-ethyl-3-{[4-(4-{[4-(trifluoromethyl)pyridin-2-yl]carbamoyl}phenoxy)-1H-pyrazolo[3,4-b]pyridin-3-yl]amino}piperidine-1-carboxamide] | 1000 to 10000 | 100 to 1000 | < 100 | > 10000
C=CC(=O)N1CCCC(Nc2n[nH]c3nccc(Oc4ccc(-c5ccc(C(F)(F)F)cn5)cc4)c23)C1 (stereo in doubt) [compound 196, 1-[(3S)-3-[(4-{4-[5-(trifluoromethyl)pyridin-2-yl]phenoxy}-1H-pyrazolo[3,4-b]pyridin-3-yl)amino]piperidin-1-yl]prop-2-en-1-one] | 1000 to 10000 | > 10000 | 100 to 1000 | 100 to 1000

The next lines start with the values.

IC50 (EGFR) [nM] | IC50 (Lck) [nM] | IC50 (Btk) [nM] | IC50 (JAK3) [nM] | Compound
1000 to 10000 | 1000 to 10000 | 100 to 1000 | > 10000 | Cc1ccnc(NC(=O)c2ccc(Oc3ccnc4[nH]nc(NC5CCN(C(=O)C6(C#N)CC6)CC5)c34)cc2)c1 [compound 277, 4-(3-(1-(1-cyanocyclopropanecarbonyl)piperidin-4-ylamino)-1H-pyrazolo[3,4-b]pyridin-4-yloxy)-N-(4-methylpyridin-2-yl)benzamide]
100 to 1000 | 100 to 1000 | < 100 | > 10000 | Cc1ccnc(NC(=O)c2ccc(Oc3ccnc4[nH]nc(N[C@@H]5CCCN(C(=O)C(N)=O)C5)c34)cc2)c1 [compound 270, (R)-4-(3-(1-(2-amino-2-oxoacetyl)piperidin-3-ylamino)-1H-pyrazolo[3,4-b]pyridin-4-yloxy)-N-(4-methylpyridin-2-yl)benzamide]
> 10000 | 100 to 1000 | < 100 | > 10000 | Cc1ccnc(NC(=O)c2ccc(Oc3ccnc4[nH]nc(N[C@@H]5CCCN(C(=O)C6(C)CCN(C)CC6)C5)c34)cc2)c1 [compound 283, (R)-4-(3-(1-(1,4-dimethylpiperidine-4-carbonyl)piperidin-3-ylamino)-1H-pyrazolo[3,4-b]pyridin-4-yloxy)-N-(4-methylpyridin-2-yl)benzamide]
> 10000 | 100 to 1000 | < 100 | 1000 to 10000 | CC1(C(=O)N2CCC[C@@H](Nc3n[nH]c4nccc(Oc5ccc(C(=O)Nc6nc7ccccc7s6)cc5)c34)C2)COC1 [compound 226, N-(1,3-benzothiazol-2-yl)-4-[(3-{[(3R)-1-(3-methyloxetane-3-carbonyl)piperidin-3-yl]amino}-1H-pyrazolo[3,4-b]pyridin-4-yl)oxy]benzamide]
1000 to 10000 | > 10000 | < 100 | > 10000 | O=C(Nc1ccccn1)c1ccc(Oc2ccnc3[nH]nc(N[C@@H]4CCCN(C(=O)C5CC5)C4)c23)cc1 [compound 232, 4-[(3-{[(3R)-1-cyclopropanecarbonylpiperidin-3-yl]amino}-1H-pyrazolo[3,4-b]pyridin-4-yl)oxy]-N-(pyridin-2-yl)benzamide]
> 10000 | 100 to 1000 | 100 to 1000 | > 10000 | CCC(=O)N1CCC[C@@H](Nc2n[nH]c3nccc(Oc4ccc(-c5nc6ccccc6s5)cc4)c23)C1 [compound 222, 1-[(3R)-3-({4-[4-(1,3-benzothiazol-2-yl)phenoxy]-1H-pyrazolo[3,4-b]pyridin-3-yl}amino)piperidin-1-yl]propan-1-one]
1000 to 10000 | 1000 to 10000 | < 100 | 100 to 1000 | COCC#CC(=O)N1CCC[C@@H](Nc2n[nH]c3nccc(Oc4ccc(C(=O)Nc5cc(C)ccn5)cc4)c23)C1 [compound 281, (R)-4-(3-(1-(4-methoxybut-2-ynoyl)piperidin-3-ylamino)-1H-pyrazolo[3,4-b]pyridin-4-yloxy)-N-(4-methylpyridin-2-yl)benzamide]
